# Reference: patent US12622916B2, “Use of H3K9me3 modulation for enhancing cognitive function” (THE REGENTS OF THE UNIVERSITY OF CALIFORNIA, priority 2015, dated 2026)
# Legend:
# aged mice = experiment: Unsupervised learning task (USL) in aged mice; type: in vivo; conditions: 10 mg/kg i.p.
# Method: Unsupervised learning task: A new group of 12 aged animals were used for the unsupervised learning task. Procedures were adapted from published work. The unsupervised learning (USL) behavioral apparatus consisted of a large open field divided by walls into 4 chambers, all accessible by small entrances in each dividing wall. The animals can also access a smaller attached enclosed dark compartment by an open entrance. After 5 days of handling, animals were injected with ETP69 (10 mg/kg, i.p.) or vehicle and placed in the video-monitored USL box for thirty minutes, and the returned to the home cage. 24 hours later the animals were placed in the USL box again and euthanized immediately after. Their brains were rapidly removed, hippocampus dissected rapidly, frozen on dry ice, and stored at −80° C. until further processing
# To evaluate if H3K9me3 is implicated in measures of spatial learning and to evaluate molecular endpoints, a second series of experiments was conducted with the USL task being the behavioral endpoint. The USL task is a simple behavioral paradigm in which mice are allowed to freely explore a four-compartment environment for a specified period of time. Reduction in overall activity and exploration of the test arena over this time is considered a measure of learning and short-term memory. […]
# Arc = Arc changes after ETP69 treatment (data not shown); type: in vivo, mice
# CA1 pyramidal neurons = experiment: Spine counts (Golgi staining) on CA1 pyramidal neurons of aged mice; type: in vivo; conditions: 10 mg/kg i.p., 24 hours
# Method: Spine counts: In another series of experiments 10 aged mice (20-22 months) were injected with ETP69 (10 mg/kg; i.p) or vehicle (i.p) and 24 hours later the animals were euthanized and the brains were separated into two hemispheres. Right hemisphere was used for Golgi staining and the left was processed for flow synaptometry. Staining was conducted according to manufacturer's information (Golgi-Cox, Bioenna).
# Specifically, we counted and classified spines on CA1 pyramidal neurons. Dendrite segments from neurons in CA1 of the hippocampus were imaged by confocal microscopy and a blinded investigator counted and classified dendritic spines according to their morphology. Spines were manually counted and classified as thin, mushroom, or stubby, according to previously described criteria.
# For each animal, at least 3 pyramidal neurons and 200 μm of total dendrite length and 250-500 spines were analyzed (n=5 animals per group). All of the neurons were chosen from the dorsal part of the CA1 hippocampal region (according with it essential role in spatial memory) and were completely stained along basal and apical dendrites. FIG. 10 presents representative images showing effect of ETP69 treatment on spines in the CA1 of the hippocampus.
# H3K9me3 = experiment: Histone H3K9 trimethylation level in brain tissue extracts of aged mice; type: in vivo
smiles,measurement,setting,value
"CN1C(=O)[C@@]23C[C@](C)(C#N)[C@H](c4ccc5c(c4)OCO5)N2C(=O)[C@]1(C)SS3 (racemic) [ETP69, Rac-(3S,6S,7S,8aS)-6-(benzo[d][1,3]dioxol-5-yl)-2,3,7-trimethyl-1,4-dioxohexahydro-6H-3,8a-epidithiopyrrolo[1,2-a]pyrazine-7-carbonitrile]","USL total distance travelled over 30 minutes, Day 1 versus Day 2",aged mice,significant decrease in total distance travelled
same,"USL habituation/exploration (distance travelled), Day 2 versus Day 1",aged mice; 24 hours after treatment,significant decrease in habituation/exploration
same,changes in Arc,Arc,did not observe changes in Arc
same,density of stubby spines,CA1 pyramidal neurons; CA1,significantly higher density
same,density of thin spines,CA1 pyramidal neurons; CA1,significantly higher density
same,numbers of mushroom spines/length of dendrite,CA1 pyramidal neurons; CA1,no difference
same,increase in total number of spines per length of dendrite compared to controls,CA1 pyramidal neurons; CA1 hippocampus,45%
same,H3K9me3 levels in hippocampus,"H3K9me3; 10 mg/kg i.p., 24 hours post drug, hippocampal histone extracts",decreases in H3K9me3 levels
same,H3K9me3 levels in cerebellum,"H3K9me3; ETP69-treated versus untreated, cerebellum",no significant difference
